Consider ten molecules from article PMC9927415, “Tyrosine Kinase Inhibitors Display Potent Activity against Cryptosporidium parvum” (Microbiology Spectrum, 2022).

Holding throughout (experiment): KINOMEscan competitive binding, whole panel
For assay [1], the target named is T1, panel of 203 kinases (Homo sapiens, UniProt Q9UEE5).
T1 construct: purchased DiscoverX (KINOMEscan)
T1 sequence (Q9UEE5 1-414): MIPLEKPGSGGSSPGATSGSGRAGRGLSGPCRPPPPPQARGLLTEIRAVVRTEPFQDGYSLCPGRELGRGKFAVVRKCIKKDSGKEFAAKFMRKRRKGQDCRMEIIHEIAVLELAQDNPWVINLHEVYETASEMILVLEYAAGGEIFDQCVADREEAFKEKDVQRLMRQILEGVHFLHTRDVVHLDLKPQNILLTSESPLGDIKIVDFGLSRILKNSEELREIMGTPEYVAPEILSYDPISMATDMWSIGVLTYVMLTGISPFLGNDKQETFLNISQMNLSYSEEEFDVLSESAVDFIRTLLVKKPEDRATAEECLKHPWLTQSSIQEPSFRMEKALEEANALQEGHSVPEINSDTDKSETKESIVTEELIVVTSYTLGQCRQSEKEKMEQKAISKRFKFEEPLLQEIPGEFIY
As to conditions: 10 µM, n=1; kinase DRAK1; read-out: Percent inhibition DRAK1. In short, it runs like this: (§1)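 First, kinases were produced as T7 bacteriophage fusion proteins. Then compounds were added to compete them off probe ligands immobilized on a solid support at the ATP site. Finally, bound kinase was measured and converted to percentage inhibition.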

Assay [2] deals with T2, panel of 203 kinases (Homo sapiens, UniProt P36894).
T2 construct: purchased DiscoverX (KINOMEscan)
T2 sequence (P36894 24-532): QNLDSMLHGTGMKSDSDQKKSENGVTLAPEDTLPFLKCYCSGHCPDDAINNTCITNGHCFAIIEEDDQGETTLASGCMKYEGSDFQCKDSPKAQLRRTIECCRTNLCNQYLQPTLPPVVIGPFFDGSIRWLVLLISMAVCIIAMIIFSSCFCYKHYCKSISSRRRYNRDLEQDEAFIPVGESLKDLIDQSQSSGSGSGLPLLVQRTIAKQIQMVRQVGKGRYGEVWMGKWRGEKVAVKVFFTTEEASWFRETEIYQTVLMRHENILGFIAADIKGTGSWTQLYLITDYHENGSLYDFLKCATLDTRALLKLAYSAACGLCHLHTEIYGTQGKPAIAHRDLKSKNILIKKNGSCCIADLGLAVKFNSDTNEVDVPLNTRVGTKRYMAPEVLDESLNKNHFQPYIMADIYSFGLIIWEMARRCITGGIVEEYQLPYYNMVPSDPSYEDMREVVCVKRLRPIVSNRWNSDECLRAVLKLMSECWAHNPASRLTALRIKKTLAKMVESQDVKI
The following applies: 10 µM, n=1; kinase BMPR1A; read-out: Percent inhibition BMPR1A. The gist of the method:
as §1

Assay [3] concerns the target T3, panel of 203 kinases (Homo sapiens, UniProt P22455).
T3 construct: purchased DiscoverX (KINOMEscan)
As to conditions: 10 µM, n=1; kinase FGFR4; read-out: Percent inhibition FGFR4. The gist of the method:
as §1

For assay [4], the target named is T4, panel of 203 kinases (Homo sapiens, UniProt Q99683).
T4 construct: purchased DiscoverX (KINOMEscan)
T4 sequence (Q99683 1-1374): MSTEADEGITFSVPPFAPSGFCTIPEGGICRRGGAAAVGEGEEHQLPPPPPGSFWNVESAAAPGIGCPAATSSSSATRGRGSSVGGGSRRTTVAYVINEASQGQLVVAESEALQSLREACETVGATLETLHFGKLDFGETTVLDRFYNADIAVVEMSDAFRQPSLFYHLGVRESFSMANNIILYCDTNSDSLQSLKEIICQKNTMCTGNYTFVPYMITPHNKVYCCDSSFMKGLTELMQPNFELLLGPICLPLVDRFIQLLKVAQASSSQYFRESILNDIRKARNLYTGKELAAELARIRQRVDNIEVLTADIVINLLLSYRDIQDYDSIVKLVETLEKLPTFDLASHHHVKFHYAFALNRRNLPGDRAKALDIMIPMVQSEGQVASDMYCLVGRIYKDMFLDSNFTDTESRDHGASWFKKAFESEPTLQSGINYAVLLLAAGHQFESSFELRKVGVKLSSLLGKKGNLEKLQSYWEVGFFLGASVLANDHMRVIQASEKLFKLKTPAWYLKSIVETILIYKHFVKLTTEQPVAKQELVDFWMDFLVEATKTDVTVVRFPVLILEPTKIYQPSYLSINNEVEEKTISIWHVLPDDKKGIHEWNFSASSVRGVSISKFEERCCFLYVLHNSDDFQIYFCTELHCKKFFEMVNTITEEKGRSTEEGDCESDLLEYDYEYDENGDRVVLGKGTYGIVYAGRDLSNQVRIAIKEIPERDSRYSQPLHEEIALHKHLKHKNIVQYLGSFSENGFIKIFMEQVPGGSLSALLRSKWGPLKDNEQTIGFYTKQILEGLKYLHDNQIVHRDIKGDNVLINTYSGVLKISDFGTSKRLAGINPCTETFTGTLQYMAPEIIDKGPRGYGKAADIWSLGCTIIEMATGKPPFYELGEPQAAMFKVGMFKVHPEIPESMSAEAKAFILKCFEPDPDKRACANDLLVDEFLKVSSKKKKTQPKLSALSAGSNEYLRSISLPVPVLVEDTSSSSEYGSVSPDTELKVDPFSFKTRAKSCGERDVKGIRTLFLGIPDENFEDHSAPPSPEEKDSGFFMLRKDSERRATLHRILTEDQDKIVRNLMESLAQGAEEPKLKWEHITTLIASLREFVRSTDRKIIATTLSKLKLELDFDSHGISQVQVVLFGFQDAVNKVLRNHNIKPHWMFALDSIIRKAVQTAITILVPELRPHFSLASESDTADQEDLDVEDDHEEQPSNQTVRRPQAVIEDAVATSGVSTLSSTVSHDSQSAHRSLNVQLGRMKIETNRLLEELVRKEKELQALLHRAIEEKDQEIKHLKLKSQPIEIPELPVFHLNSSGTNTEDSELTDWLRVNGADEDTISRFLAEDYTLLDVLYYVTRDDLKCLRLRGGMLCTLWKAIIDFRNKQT
The following applies: 10 µM, n=1; kinase MAP3K5; read-out: Percent inhibition MAP3K5. The gist of the method: as §1

Each structure is given as a SMILES string.

T3 sequence (P22455 22-802): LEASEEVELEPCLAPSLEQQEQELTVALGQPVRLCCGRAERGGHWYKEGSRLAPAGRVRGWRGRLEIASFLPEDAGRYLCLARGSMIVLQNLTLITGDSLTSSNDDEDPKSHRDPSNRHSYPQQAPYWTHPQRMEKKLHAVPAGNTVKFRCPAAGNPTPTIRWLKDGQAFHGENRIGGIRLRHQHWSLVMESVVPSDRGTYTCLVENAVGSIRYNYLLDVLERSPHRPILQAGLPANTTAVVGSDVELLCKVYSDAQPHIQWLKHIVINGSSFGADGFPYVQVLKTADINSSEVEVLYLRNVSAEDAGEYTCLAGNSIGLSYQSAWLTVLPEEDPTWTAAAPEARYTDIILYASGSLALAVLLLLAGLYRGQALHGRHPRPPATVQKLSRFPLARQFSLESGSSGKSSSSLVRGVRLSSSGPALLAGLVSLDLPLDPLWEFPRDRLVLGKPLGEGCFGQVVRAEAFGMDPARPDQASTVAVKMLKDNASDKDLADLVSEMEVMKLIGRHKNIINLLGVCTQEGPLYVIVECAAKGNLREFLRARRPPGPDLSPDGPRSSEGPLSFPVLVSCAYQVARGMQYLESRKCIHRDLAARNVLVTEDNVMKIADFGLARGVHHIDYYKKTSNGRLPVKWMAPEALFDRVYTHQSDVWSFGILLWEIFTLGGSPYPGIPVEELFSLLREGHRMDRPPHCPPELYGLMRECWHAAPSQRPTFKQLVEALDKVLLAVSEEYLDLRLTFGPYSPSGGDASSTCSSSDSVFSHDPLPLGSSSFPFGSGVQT

For `Cc1ccc(O)cc1Nc1ccnc(Nc2cccc(C(N)=O)c2)n1` [Compound 3], the inhibition at 10 µM at panel of 203 kinases [1] stood at 0%; at panel of 203 kinases [2] it was 99.2%; on panel of 203 kinases [3], 82.4%; on panel of 203 kinases [4], 0%.
In the case of `Clc1ccc(Nc2ncc(-c3ccccc3)s2)cc1` [Compound 10], the inhibition at 10 µM at panel of 203 kinases [1], on panel of 203 kinases [2], at panel of 203 kinases [3] and at panel of 203 kinases [4] was 0% each time.
On to `c1ccc(COc2cccc(-c3ccnc4[nH]ccc34)c2)cc1` [Compound 9], for which the inhibition at 10 µM on panel of 203 kinases [1], at panel of 203 kinases [2], at panel of 203 kinases [3] and on panel of 203 kinases [4] was 0% in each case.
As for `Fc1cccc(COc2ccc(Nc3ncnc4c3CN(CCN3CCOCC3)CC4)cc2Cl)c1` [Compound 6], the inhibition at 10 µM on panel of 203 kinases [1], at panel of 203 kinases [2], on panel of 203 kinases [3] and at panel of 203 kinases [4] was 0% each time.
Turning to `C[C@@H](Oc1cc(-c2cnc3ccccn23)sc1C(N)=O)c1ccccc1Cl` [Compound 8], the inhibition at 10 µM at panel of 203 kinases [1] is 86.1%; at panel of 203 kinases [2], 0%; at panel of 203 kinases [3] it was 0%; on panel of 203 kinases [4] it was 0%.
In the case of `CN1CCN(c2ccc(Nc3nccc(-c4cnn5ncccc45)n3)cc2C#N)CC1` [Compound 1], the inhibition at 10 µM was 100% at panel of 203 kinases [1], 0% on panel of 203 kinases [2], 0% on panel of 203 kinases [3] and 0% on panel of 203 kinases [4].
In the case of `Cc1ccc(O)cc1N(C)c1ccnc(Nc2cccc(S(N)(=O)=O)c2)n1` [Compound 4], the inhibition at 10 µM on panel of 203 kinases [1] came out at 0%; on panel of 203 kinases [2], 97%; at panel of 203 kinases [3] it was 0%; on panel of 203 kinases [4], 0%.
As for `COc1ccc(Nc2nccc(-c3cnn4ncccc34)n2)cc1` [Compound 2], the inhibition at 10 µM at panel of 203 kinases [1] is 98.4%; on panel of 203 kinases [2], 0%; on panel of 203 kinases [3], 0%; at panel of 203 kinases [4], 0%.
On to `Nc1ncc2c(-c3ccncc3)c[nH]c2n1` [Compound 11], for which the inhibition at 10 µM at panel of 203 kinases [1] stood at 92.8%; on panel of 203 kinases [2], 0%; on panel of 203 kinases [3], 0%; on panel of 203 kinases [4], 0%.
For `COc1cc(Nc2nccc(-c3sc(N)nc3-c3cccc(NC(=O)c4c(F)cccc4F)c3)n2)cc(OC)c1OC` [Compound 7], the inhibition at 10 µM at panel of 203 kinases [1] came to 0%; on panel of 203 kinases [2], 0%; at panel of 203 kinases [3], 100%; on panel of 203 kinases [4], 0%.

A word on the inhibition: it is the change of the read-out against control, counted positive when it falls.
